The results in this text go back to patent US10023528B2, “Branched 3-phenylpropionic acid derivatives and their use” (BAYER INTELLECTUAL PROPERTY GMBH, priority 2011, dated 2018).

SMILES strings stand for the structures.

Assay [1] relates to recombinant guanylate cyclase reporter cell line (CHO reporter cell). The experiment in a line: Action at a recombinant guanylate cyclase reporter cell line. The format is cell-based. Particulars: CHO reporter cell in vitro; read-out: MEC (minimum effective concentration), sGC-activating activity in the CHO reporter cell. As to the method: The cellular action of the compounds according to the invention is determined at a recombinant guanylate cyclase reporter cell line, as described in F. Wunder et al., Anal. Biochem. 339, 104-112 (2005).

Assay [2] deals with saphenous artery rings. The assay is described as follows: Vasorelaxant effect in vitro (phenylephrine-contracted saphenous artery rings). The format is cell-based. Particulars: Oryctolagus cuniculus; rabbit saphenous artery rings, phenylephrine-induced contraction. As to the method: Rabbits are anaesthetized and sacrificed by intravenous injection of thiopental sodium (about 50 mg/kg) and exsanguinated. The saphenous artery is removed and divided into rings 3 mm wide. The rings are mounted singly on in each case a pair of triangular hooks open at the end and made of 0.3 mm-thick special wire (Remanium®). Each ring is placed under an initial tension in 5 ml organ baths with Krebs-Henseleit solution which is at 37° C., is gassed with carbogen and has the following composition: NaCl 119 mM; KCl 4.8 mM; CaCl2×2 H2O 1 mM; MgSO4×7 H2O 1.4 mM; KH2PO4 1.2 mM; NaHCO3 25 mM; glucose 10 mM; bovine serum albumin 0.001%. The force of contraction is detected with Statham UC2 cells, amplified and digitized via A/D converters (DAS-1802 HC, Keithley Instruments, Munich) and recorded in parallel on chart recorders. Contractions are induced by addition of phenylephrine.
After several (generally 4) control cycles, the substance to be investigated is added in each further run in increasing dosage, and the level of the contraction achieved under the influence of the test substance is compared with the level of the contraction reached in the last preceding run. The concentration necessary to reduce the contraction reached in the preceding control by 50% is calculated from this (IC50). The standard application volume is 5 μl. The proportion of DMSO in the bath solution corresponds to 0.1%.

In assay [3] the target is soluble guanylate cyclase (sGC) (Rattus norvegicus (Rat), UniProt P20595). The experiment in a line: Stimulation of sGC enzyme activity (PPi detection, luciferase). The format is biochemical. Conditions: sGC enzyme in vitro; for EC50: read-out: EC50 (concentration at 50% of maximum efficacy), activating action at the sGC enzyme. As to the method: Soluble guanylate cyclase (sGC) converts on stimulation GTP into cGMP and pyrophosphate (PPi). PPi is detected with the aid of the assay described below. The signal produced in the assay increases as the reaction progresses and serves as a measure of the sGC enzyme activity under the given stimulation.
soluble guanylate cyclase (sGC), sequence (P20595 whole entry): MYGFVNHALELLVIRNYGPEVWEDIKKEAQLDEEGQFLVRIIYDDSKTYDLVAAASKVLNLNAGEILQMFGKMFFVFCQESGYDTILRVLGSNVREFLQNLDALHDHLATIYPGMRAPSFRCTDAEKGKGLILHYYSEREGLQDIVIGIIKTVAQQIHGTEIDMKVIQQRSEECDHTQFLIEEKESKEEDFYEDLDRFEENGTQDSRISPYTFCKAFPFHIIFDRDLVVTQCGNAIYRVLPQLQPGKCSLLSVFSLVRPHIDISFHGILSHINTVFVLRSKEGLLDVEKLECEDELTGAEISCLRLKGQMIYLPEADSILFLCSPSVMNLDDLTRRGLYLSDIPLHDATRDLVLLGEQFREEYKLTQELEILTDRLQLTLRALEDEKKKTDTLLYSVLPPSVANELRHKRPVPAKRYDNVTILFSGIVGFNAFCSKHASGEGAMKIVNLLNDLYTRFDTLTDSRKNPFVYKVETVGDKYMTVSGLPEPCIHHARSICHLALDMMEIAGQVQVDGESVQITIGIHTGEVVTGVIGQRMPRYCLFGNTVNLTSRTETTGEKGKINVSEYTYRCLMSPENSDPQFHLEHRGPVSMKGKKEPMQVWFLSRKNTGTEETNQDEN
soluble guanylate cyclase (sGC), sequence (P19686 whole entry partner): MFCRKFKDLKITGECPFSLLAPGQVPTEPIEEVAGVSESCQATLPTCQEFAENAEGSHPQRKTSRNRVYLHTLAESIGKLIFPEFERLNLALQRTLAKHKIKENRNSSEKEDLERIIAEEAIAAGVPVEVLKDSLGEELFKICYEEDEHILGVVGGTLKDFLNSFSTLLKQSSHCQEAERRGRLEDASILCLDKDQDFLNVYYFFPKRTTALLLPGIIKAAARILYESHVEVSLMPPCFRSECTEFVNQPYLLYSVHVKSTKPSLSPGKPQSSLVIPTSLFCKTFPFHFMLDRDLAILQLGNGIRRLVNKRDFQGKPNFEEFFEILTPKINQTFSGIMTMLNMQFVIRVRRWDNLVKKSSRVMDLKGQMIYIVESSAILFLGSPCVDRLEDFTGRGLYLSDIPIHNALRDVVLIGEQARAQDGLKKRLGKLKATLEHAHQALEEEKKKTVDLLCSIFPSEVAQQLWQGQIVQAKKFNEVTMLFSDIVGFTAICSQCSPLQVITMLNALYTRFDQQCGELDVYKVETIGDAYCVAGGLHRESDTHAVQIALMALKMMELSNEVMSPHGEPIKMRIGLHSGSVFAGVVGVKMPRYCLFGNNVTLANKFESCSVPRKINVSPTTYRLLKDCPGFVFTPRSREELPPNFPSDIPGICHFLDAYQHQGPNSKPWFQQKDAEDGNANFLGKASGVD
To carry out the assay, 29 μl of enzyme solution [0-10 nM soluble guanylate cyclase (prepared according to Hönicka et al, J. Mol. Med. 77, 14-23 (1999)) in 50 mM TEA, 2 mM MgC2, 0.1% BSA (fraction V), 0.005% Brij®, pH 7.5] are initially introduced into a microplate, and 1 μl of the substance to be tested (as a serially diluted solution in DMSO) is added. The mixture is incubated at room temperature for 10 min. Then 20 μl of detection mix [1.2 nM Firefly Luciferase (Photinus pyralis luciferase, Promega), 29 μM dehydroluciferin (prepared according to Bitler & McElroy, Arch. Biochem. Biophys. 72, 358 (1957)), 122 μM luciferin (Promega), 153 μM ATP (Sigma) and 0.4 mM DTT (Sigma) in 50 mM TEA, 2 mM MgCl2, 0.1% BSA (fraction V), 0.005% Brij®, pH 7.5] are added. The enzyme reaction is started by adding 20 μl of substrate solution [1.25 mM guanosine 5′-triphosphate (Sigma) in 50 mM TEA, 2 mM MgC2, 0.1% BSA (fraction V), 0.005% Brij®, pH 7.5] and measured continuously in a luminometer. The extent of the stimulation by the substance to be tested can be determined relative to the signal of the unstimulated reaction.
The activation of haem-free guanylate cyclase is examined by addition of 25 μM of 1H-1,2,4-oxadiazolo[4,3-a]quinoxalin-1-one (ODQ) to the enzyme solution and subsequent incubation for 30 minutes and compared to the stimulation of the native enzyme.

As to `CC(C)C(C)(CC(=O)O)c1ccc(Cl)c(NC(=O)[C@H](c2ccc(Cl)cc2)[C@@H](C)C(F)(F)F)c1` (single isomer, unassigned) [Example 3], the minimal effective concentration in assay [1] turned out to be 0.0003 µM. Moreover, inhibition in assay [2] was half-maximal at 801 nM (IC50). In addition, in assay [3], the “MEC (minimum effective concentration), activating action at the sGC enzyme” value (“MEC (minimum effective concentration)” below) came to 1 nM and the EC50 is 37 nM.
For the compound `CC(C)C(C)(CC(=O)O)c1ccc(Cl)c(NC(=O)[C@H](c2ccc(Cl)cc2)[C@@H](C)C(F)(F)F)c1` (single isomer, unassigned) [Example 4], in assay [1], the minimal effective concentration is 0.003 µM. In assay [3], the “MEC (minimum effective concentration)” value was found to be 2.4 nM and the EC50 was determined as 110 nM.
For `C[C@H]([C@H](C(=O)Nc1cc(C(C)(CC(=O)O)C2CCC2)ccc1Cl)c1ccc(Cl)cc1)C(F)(F)F` (single isomer, unassigned) [Example 5] the same measures were 0.0003 µM, 0.3 nM and 5.2 nM.
Take `C[C@H]([C@H](C(=O)Nc1cc(C(C)(CC(=O)O)C2CCC2)ccc1Cl)c1ccc(Cl)cc1)C(F)(F)F` (single isomer, unassigned) [Example 6]: the minimal effective concentration in assay [1] turned out to be 0.001 µM. Further, in assay [3], the “MEC (minimum effective concentration)” value is 1.1 nM and the EC50 came to 56 nM.
Turning to `C[C@H]([C@H](C(=O)Nc1cc(C(CC(=O)O)C2(C)CC2)ccc1Cl)c1ccc(Cl)cc1)C(F)(F)F` (single isomer, unassigned) [Example 26], the minimal effective concentration in assay [1] is 0.01 µM.
For `C[C@H]([C@H](C(=O)Nc1cc(C(CC(=O)O)CC2CC2)ccc1Cl)c1ccc(Cl)cc1)C(F)(F)F` (single isomer, unassigned) [Example 35], the minimal effective concentration in assay [1] turned out to be 0.0003 µM. Also, in assay [3], the “MEC (minimum effective concentration)” value amounted to 1 nM and the EC50 was 11 nM.
On to `C[C@H]([C@H](C(=O)Nc1cc(C(CC(=O)O)CC2CC2)ccc1Cl)c1ccc(Cl)cc1)C(F)(F)F` (single isomer, unassigned) [Example 36], for which the minimal effective concentration in assay [1] was determined as 0.003 µM.
In the case of `CC(C)C(CC(=O)O)c1ccc(Cl)c(NC(=O)[C@H](c2ccc(Cl)cc2)[C@@H](C)C(F)(F)F)c1` (single isomer, unassigned; (+)) [Example 1], in assay [1], the minimal effective concentration worked out at 0.003 µM. In assay [3], the “MEC (minimum effective concentration)” value is 1 nM and the EC50 is 22 nM.
Take `CC(C)C(CC(=O)O)c1ccc(Cl)c(NC(=O)[C@H](c2ccc(Cl)cc2)[C@@H](C)C(F)(F)F)c1` (single isomer, unassigned; (+)) [Example 2]: the minimal effective concentration in assay [1] stood at 0.0065 µM. In assay [3], the “MEC (minimum effective concentration)” value came out at 4 nM and the EC50 is 89 nM.
`C[C@H]([C@H](C(=O)Nc1cc(C(CC(=O)O)C2CCC2)ccc1Cl)c1ccc(Cl)cc1)C(F)(F)F` (single isomer, unassigned; (+)) [Example 33]: the minimal effective concentration in assay [1] is 0.001 µM. Besides, in assay [3], the “MEC (minimum effective concentration)” value came out at 0.4 nM and the EC50 was determined as 11 nM.
Consider `C[C@H]([C@H](C(=O)Nc1cc(C(CC(=O)O)C2CCC2)ccc1Cl)c1ccc(Cl)cc1)C(F)(F)F` (single isomer, unassigned; (+)) [Example 34], for which the minimal effective concentration in assay [1] was found to be 0.01 µM.
In the case of `C[C@H]([C@H](C(=O)Nc1cc(C(C)(CC(=O)O)C2CC2)ccc1Cl)c1ccc(Cl)cc1)C(F)(F)F` (stereo partly shown) [Example 7], the minimal effective concentration in assay [1] is 0.3 µM.
On the same count and under the same terms, next, `CCc1ccc([C@@H](C(=O)Nc2cc(C(CC(=O)O)C(C)C)ccc2Cl)[C@@H](C)C(F)(F)F)cc1` (stereo partly shown) [Example 8]: 0.001 µM.
The same measure, in the same setting: next, `CC(C)C(CC(=O)O)c1ccc(Cl)c(NC(=O)[C@H](c2ccc(Cl)c(F)c2)[C@@H](C)C(F)(F)F)c1` (stereo partly shown) [Example 9]: 0.001 µM; `CC(C)C(CC(=O)O)c1ccc(Cl)c(NC(=O)[C@H](c2ccc(F)cc2)[C@@H](C)C(F)(F)F)c1` (stereo partly shown) [Example 11]: 0.003 µM.
In the case of `CC(C)C(CC(=O)O)c1ccc(Cl)c(NC(=O)C(c2ccc(CC(F)(F)F)cc2)C(C)C(F)(F)F)c1` (stereo not shown) [Example 12], the minimal effective concentration in assay [1] came out at 0.001 µM. In assay [3], the “MEC (minimum effective concentration)” value worked out at 1.1 nM and the EC50 came to 17 nM.
Regarding `CC(C)C(CC(=O)O)c1ccc(Cl)c(NC(=O)[C@H](c2ccc(C3CC3(F)F)cc2)[C@@H](C)C(F)(F)F)c1` (stereo partly shown) [Example 13], the minimal effective concentration in assay [1] amounted to 0.0003 µM. In assay [3], the “MEC (minimum effective concentration)” value is 0.5 nM and the EC50 was 14 nM.
Consider `COc1cc([C@@H](C(=O)Nc2cc(C(CC(=O)O)C(C)C)ccc2Cl)[C@@H](C)C(F)(F)F)ccc1Cl` (stereo partly shown) [Example 15], for which the minimal effective concentration in assay [1] came to 0.003 µM.
With `Cc1ccc([C@@H](C(=O)Nc2cc(C(CC(=O)O)C(C)C)ccc2Cl)[C@@H](C)C(F)(F)F)cc1` (stereo partly shown) [Example 16], the minimal effective concentration in assay [1] stood at 0.003 µM. Moreover, the midpoint of inhibition in assay [2], the IC50, lay at 767 nM.
As for `Cc1cc([C@@H](C(=O)Nc2cc(C(CC(=O)O)C(C)C)ccc2Cl)[C@@H](C)C(F)(F)F)ccc1Cl` (stereo partly shown) [Example 17], the minimal effective concentration in assay [1] was found to be 0.001 µM.
The same measure, in the same setting: then `CC(C)C(CC(=O)O)c1ccc(Cl)c(NC(=O)C(c2ccc(Cl)cc2)C2CCC(F)(F)C2)c1` (stereo not shown) [Example 18], with 0.3 µM; and `CC(C)C(CC(=O)O)c1ccc(Cl)c(NC(=O)C(c2ccc(Cl)cc2)C2CCC(F)(F)C2)c1` (stereo not shown) [Example 19], with 0.03 µM; and `CC(C)C(CC(=O)O)c1ccc(Cl)c(NC(=O)C(c2ccc(Cl)cc2)C2CCC(F)(F)C2)c1` (stereo not shown) [Example 20], with 1 µM.
Same read-out and setting: then `CC(C)C(CC(=O)O)c1ccc(Cl)c(NC(=O)C(c2ccc(Cl)cc2)C2CCC(F)(F)C2)c1` (stereo not shown) [Example 21], with 0.01 µM.
Turning to `C[C@H]([C@H](C(=O)Nc1cc(C(CC(=O)O)C2CC2)ccc1Cl)c1ccc(Cl)cc1)C(F)(F)F` (stereo partly shown) [Example 23], the minimal effective concentration in assay [1] worked out at 0.003 µM.
As to `COC(C)(C)C(CC(=O)O)c1ccc(Cl)c(NC(=O)[C@H](c2ccc(Cl)cc2)[C@@H](C)C(F)(F)F)c1` (stereo partly shown) [Example 25], the minimal effective concentration in assay [1] is 0.01 µM. Also, in assay [3], the “MEC (minimum effective concentration)” value was 5.1 nM and the EC50 was 220 nM.
`C[C@H]([C@H](C(=O)Nc1cc(C(CC(=O)O)C2(F)CC2)ccc1Cl)c1ccc(Cl)cc1)C(F)(F)F` (stereo partly shown) [Example 27]: the minimal effective concentration in assay [1] was found to be 0.003 µM. In addition, in assay [3], the “MEC (minimum effective concentration)” value is listed as 1.7 nM and the EC50 was 68 nM.
Consider `C[C@H]([C@H](C(=O)Nc1cc(C(CC(=O)O)C2CC(F)(F)C2)ccc1Cl)c1ccc(Cl)cc1)C(F)(F)F` (stereo partly shown) [Example 28], for which, in assay [1], the minimal effective concentration was 0.03 µM.
Regarding `CC(C(=O)O)C(c1ccc(Cl)c(NC(=O)C(c2ccc(Cl)cc2)[C@@H](C)C(F)(F)F)c1)C1CC1` (stereo partly shown) [Example 30], the minimal effective concentration in assay [1] worked out at 0.01 µM. In assay [3], the “MEC (minimum effective concentration)” value is on record as 1.7 nM and the EC50 was determined as 640 nM.
For the compound `C[C@H](C(C(=O)Nc1cc(C(CC(=O)O)C2CC2(F)F)ccc1Cl)c1ccc(Cl)cc1)C(F)(F)F` (stereo partly drawn) [Example 31, 3-(4-Chloro-3-{[(3R)-2-(4-chlorophenyl)-4,4,4-trifluoro-3-methylbutanoyl]amino}phenyl)-3-(2,2-difluorocyclopropyl)propanoic acid], the minimal effective concentration in assay [1] amounted to 0.003 µM.
